Reference: patent publication US11827628B2, “Compositions and methods for inhibition of the JAK pathway” (Rigel Pharmaceuticals, Inc., priority 2005, dated 2023)
Structures can show the parent of a compound that is named as a salt.

Tests used:
[1] = system: IL-4 stimulated expression of CD23 in human Ramos B cells (JAK-1 and JAK-3); experiment: Assay for Ramos B-Cell Line Stimulated with IL-4 (CD23 upregulation, FACS); format: cell-based; conditions: Homo sapiens, Ramos, Ramos B cells stimulated with IL-4, CD23 expression by FACS; read-out: IC50, Example 41
How it was run: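 Human Ramos B cells in RPMI with 5% serum were pre-incubated with compound or DMSO for 1 h at 37 °C, then stimulated with IL-4 at a final 50 units/mL for 20-24 h. CD23 upregulation was measured by anti-CD23-PE staining and flow cytometry, and IC50 values were calculated.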

[2] = system: up-regulation of ICAM-1 (CD54) by IFNγ in U937 human monocytic cells; experiment: U937 IFNγ ICAM1 FACS Assay; format: cell-based; conditions: Homo sapiens, U-937, U937 cells stimulated with IFNγ, ICAM-1 expression by FACS; read-out: IC50, Example 44
Description: The activity of the compounds of the invention may additionally be characterized by assaying the effect of the 2,4-substituted pyrimidinediamine compounds described herein on A549 lung epithelial cells and U937 cells. A549 lung epithelial cells and U937 cells up-regulate ICAM-1 (CD54) surface expression in response to a variety of different stimuli. Therefore, using ICAM-1 expression as readout, test compound effects on different signaling pathways can be assessed in the same cell type. Stimulation with IL-1β through the IL-1β receptor activates the TRAF6/NFκB pathway resulting in up-regulation of ICAM-1. IFNγ induces ICAM-1 up-regulation through activation of the JAK1/JAK2 pathway. The up-regulation of ICAM-1 can be quantified by flow cytometry across a compound dose curve and EC50, values are calculated.
U937 human monocytic cells up-regulate ICAM-1 (CD54) surface expression in response to a variety of different stimuli. Therefore, using ICAM-1 expression as readout, compound effects on different signaling pathways can be assessed in the same cell type. IFNγ up-regulates ICAM-1 through activation of the JAK/Stat pathway. In this example, the up-regulation of ICAM-1 by IFNγ was assessed.
The U937 human monocytic cell line was obtained from ATCC of Rockville Maryland, catalog number CRL-1593.2, and cultured in RPM1-1640 medium containing 10% (v/v) FCS. U937 cells were grown in 10% RPMI. The cells were then plated at a concentration of 100,000 cells per 160 μL in 96 well flat bottom plates. […] Then 4 μL of test compound was transferred to 76 μL of 10% RPMI resulting in a 10× solution (100 μM test compound, 5% DMSO). For control wells, 4 μL of DMSO was diluted into 76 μL 10% RPMI.
The assay was performed in duplicate with 8 points (8 3-fold dilution concentrations from […]) and with 4 wells of DMSO only (control wells) under stimulated conditions and 4 wells of DMSO only under unstimulated conditions.
The diluted compound plate was mixed 2× using a multimek (Beckman Coulter of Brea, California) and then 20 μL of the diluted compounds was transferred to the 96 well plate containing 160 μL of cells, which were then mixed again twice at low speeds. The cells and compounds were then pre-incubated for 30 minutes at 37° C. with 5% CO2.
The 10× stimulation mix was made by preparing a 100 ng/mL solution of human IFNγ in 10% RPMI. […] The cells were kept under conditions for stimulation for 18-24 hours at 37° C. with 5% CO2.
The cells were transferred to a 96 well round bottom plate for staining and then kept on ice for the duration of the staining procedure. Cells were spun down at 1000 rpm for 5 minutes at 4° C., following which the supernatant was removed. Following removal of the supernatant, 1 μL APC conjugated mouse anti-human ICAM-1 antibody was added per 100 μL FACS buffer. The cells were then incubated on ice in the dark for 30 minutes. Following incubation, […] of FACS buffer was added and the cells were centrifuged at 1000 rpm for 5 minutes at 4° C., following which the supernatant was removed. After removal of the supernatant, 200 μL of FACS buffer was added and the cells were resuspended. After suspension, the cells were centrifuged at 1000 rpm for 5 min at 4° C. Supernatant was then removed prior to resuspension of the cells in 150 μL FACS buffer.
Detection was performed using a BD LSR I System Flow Cytometer, purchased from BD Biosciences of San Jose, California The live cells were gated for live scatter and the geometric mean of ICAM-APC was measured (Becton-Dickinson CellQuest software version 3.3, Franklin Lakes, NJ). Both % live cells and ICAM-1 expression was analyzed. The assays for the test compounds were carried out in parallel with a control compound of known activity.

| SMILES | IC50 [1] | IC50 [2] |
| --- | --- | --- |
| Cc1cnc(Nc2ccc(S(N)(=O)=O)cc2)nc1Nc1ccc2c(c1)NC(=O)CO2 [VII-31, N2-(4-Aminosulphonylphenyl)-5-methyl-N4-(3-oxo-benz[1,4]oxazin-6-yl)-2,4-pyrimidinediamine] | 0.125 µM | 7.28 µM |
| Cc1ccc(Nc2ncc(F)c(Nc3ccc(C(=O)N4CCSCC4)cc3)n2)cc1S(N)(=O)=O [IX-35, N2-(3-Aminosulfonyl-4-methylphenyl)-5-fluoro-N4-[4-(4-thiomorpholinyl)carbonylphenyl]-2,4-pyrimidinediamine] | 0.455 µM | 2.1 µM |
| C#CCn1ccc2cc(Nc3nc(Nc4ccc(C)c(S(N)(=O)=O)c4)ncc3F)ccc21 [IX-1, N2-(3-Aminosulfonyl-4-methylphenyl)-5-fluoro-N4-[1-(propyn-3-yl)indol-5-yl]-2,4-pyrimidinediamine] | 0.0893 µM | 1.13 µM |
| COc1cc(Nc2nc(Nc3ccc(C)c(S(N)(=O)=O)c3)ncc2F)ccc1Cl [VI-5, N2-(3-Aminosulfonyl-4-methylphenyl)-N4-(4-chloro-3-methoxyphenyl)-5-fluoro-2,4-pyrimidinediamine] | 0.0405 µM | 1.39 µM |
| Cc1ccc(Nc2ncc(F)c(Nc3cccc4c(CC#N)c[nH]c34)n2)cc1S(N)(=O)=O [IX-16, N2-(3-Aminosulfonyl-4-methylphenyl)-N4-(3-cyanomethyl-1H-indol-7-yl)-5-fluoro-2,4-pyrimidinediamine] | 0.21 µM | 2.51 µM |
| Cc1ccc(Nc2ncc(F)c(Nc3ccc(C)c(S(N)(=O)=O)c3)n2)cc1S(N)(=O)=O [VI-114, N2,N4-Bis-(3-aminosulfonyl-4-methylphenyl)-5-fluoro-2,4-pyrimidinediamine] | 0.209 µM | 33.2 µM |
| N#CCc1c[nH]c2cc(Nc3nc(Nc4cccc(S(N)(=O)=O)c4)ncc3F)ccc12 [IX-12, N2-(3-Aminosulfonylphenyl)-N4-(3-cyanomethyl-1H-indol-6-yl)-5-fluoro-2,4-pyrimidinediamine] | 0.0973 µM | 3.48 µM |
| COc1cc(Nc2nc(Nc3ccc(Cl)c(S(N)(=O)=O)c3)ncc2F)ccc1Cl [VI-11, N2-(3-Aminosulfonyl-4-chlorophenyl)-N4-(4-chloro-3-methoxyphenyl)-5-fluoro-2,4-pyrimidinediamine] | 0.259 µM | 7.14 µM |
| Cc1ccc(Nc2ncc(C)c(Nc3ccc4c(c3)NC(=O)CO4)n2)cc1S(N)(=O)=O [VII-30, N2-(3-Aminosulphonyl-4-methylphenyl)-5-methyl-N4-(3-oxo-benz[1,4]oxazin-6-yl)-2,4-pyrimidinediamine] | 0.0358 µM | 0.701 µM |
| Cc1ccc(Nc2ncc(F)c(Nc3ccc4ncccc4c3)n2)cc1S(N)(=O)=O [VII-69, N2-(3-Aminosulfonyl-4-methylphenyl)-5-fluoro-N4-(quinolin-6-yl)-2,4-pyrimidinediamine] | 0.0767 µM | 0.99 µM |
| Cc1ccc(Nc2ncc(F)c(Nc3ccc(-c4cnco4)cc3)n2)cc1S(N)(=O)=O [IV-6, N2-(3-Aminosulfonyl-4-methylphenyl)-5-fluoro-N4-[4-(1,3-oxazol-5-yl)phenyl]-2,4-pyrimidinediamine] | 0.103 µM | 0.88 µM |
| N#CCc1c[nH]c2c(Nc3nc(Nc4cccc(S(N)(=O)=O)c4)ncc3F)cccc12 [IX-15, N2-(3-Aminosulfonylphenyl)-N4-(3-cyanomethyl-1H-indol-7-yl)-5-fluoro-2,4-pyrimidinediamine] | 0.217 µM | 5.36 µM |
| N#CCN1C(=O)COc2ccc(Nc3nc(Nc4ccc(S(N)(=O)=O)cc4)ncc3F)cc21 [Compound V-6, N2-(4-Aminosulphonylphenyl)-5-fluoro-N4-(3-oxo-4-cyanomethyl-benz[1,4]oxazin-6-yl]-2,4-pyrimidinediamine] | 0.0219 µM | 0.572 µM |
| Cc1ccc(Nc2ncc(F)c(Nc3ccc(O)cc3)n2)cc1S(N)(=O)=O [VI-102, N2-(3-Aminosulfonyl-4-methylphenyl)-5-fluoro-N4-[4-hydroxyphenyl]-2,4-pyrimidinediamine] | 0.183 µM | 2.8 µM |
| COc1ccc(Nc2nc(Nc3ccc(N4CCN(C)CC4)c(S(N)(=O)=O)c3)ncc2F)cc1Cl [VI-116, N2-[3-Aminosulfonyl-4-(4-methylpiperazine-1-yl)phenyl]-N4-(3-chloro-4-methoxyphenyl)-5-fluoro-2,4-pyrimidinediamine] | 0.0311 µM | 0.673 µM |

More lines, now with the values ahead:

| IC50 [1] | IC50 [2] | SMILES |
| --- | --- | --- |
| 0.102 µM | 3.65 µM | COc1ccc(Nc2nc(Nc3cccc(S(N)(=O)=O)c3)ncc2F)cn1 [VII-6, N2-(3-Aminosulfonylphenyl)-5-fluoro-N4-(2-methoxypyrid-5-yl)-2,4-pyrimidinediamine] |
| 0.0654 µM | 2.76 µM | NS(=O)(=O)c1cccc(Nc2ncc(F)c(Nc3ccc4ncccc4c3)n2)c1 [VII-70, N2-(3-Aminosulfonylphenyl)-5-fluoro-N4-(quinolin-6-yl)-2,4-pyrimidinediamine] |
| 0.0946 µM | 3.85 µM | C#CCOC(=O)NCc1ccc(Nc2nc(Nc3cccc(S(N)(=O)=O)c3)ncc2F)cc1 [VI-74, N2-(3-Aminosulfonylphenyl)-5-fluoro-N4-{4-[(prop-2-ynyloxy)carbonylaminomethyl]phenyl}-2,4-pyrimidinediamine] |
| 0.0977 µM | 0.504 µM | NS(=O)(=O)c1cccc(Nc2ncc(F)c(Nc3ccc(-c4cnco4)cc3)n2)c1 [IV-5, N2-(3-Aminosulfonylphenyl)-5-fluoro-N4-[4-(1,3-oxazol-5-yl)phenyl]-2,4-pyrimidinediamine] |
| 0.113 µM | 0.535 µM | NS(=O)(=O)c1cccc(Nc2ncc(F)c(Nc3ccc(CCCF)cc3)n2)c1 [VI-83, N2-(3-Aminosulfonylphenyl)-5-fluoro-N4-[4-(3-fluoropropyl)phenyl]-2,4-pyrimidinediamine] |
| 0.0835 µM | 1.16 µM | NS(=O)(=O)c1cccc(Nc2ncc(F)c(Nc3ccc(CCCCF)cc3)n2)c1 [VI-92, N2-(3-Aminosulfonylphenyl)-5-fluoro-N4-[4-(4-fluorobutyl)phenyl]-2,4-pyrimidinediamine] |
| 0.145 µM | 1.44 µM | NS(=O)(=O)c1cccc(Nc2ncc(F)c(Nc3ccc(Cc4ccncc4)cc3)n2)c1 [III-128, N2-(3-Aminosulfonylphenyl)-5-fluoro-N4-[4-(4-pyridylmethyl)phenyl]-2,4-pyrimidinediamine p-Toluenesulfonic Acid Salt] |
| 0.268 µM | 2.1 µM | CNC(=O)OCc1cccc(Nc2nc(Nc3ccc(C)c(S(N)(=O)=O)c3)ncc2F)c1 [VI-49, N2-(3-Aminosulfonyl-4-methylphenyl)-5-fluoro-N4-[3-(methylaminocarbonyloxymethyl)phenyl]-2,4-pyrimidinediamine] |
| 0.16 µM | 1.74 µM | C#CCOc1ccc(Nc2nc(Nc3ccc(C(C)C)c(S(N)(=O)=O)c3)ncc2F)cc1 [VI-63, N2-[3-Aminosulfonyl-4-(2-propyl)phenyl]-5-fluoro-N4-[4-(prop-2-ynyloxy)phenyl]-2,4-pyrimidinediamine] |
| 0.132 µM | 2.04 µM | NS(=O)(=O)c1cccc(Nc2ncc(F)c(Nc3ccc(CCCCO)cc3)n2)c1 [VI-89, N2-(3-Aminosulfonylphenyl)-5-fluoro-N4-[4-(4-hydroxybutyl)phenyl]-2,4-pyrimidinediamine] |
